Experimental data from US4409325A, “Valproate conjugation using dicarbonyls” (Syva Company, priority 1981, dated 1983).

How the values were obtained:
[1] = humans, cited from earlier work
[2] = antiepileptic; cited from earlier work
[3] = anticonvulsant use; cited from earlier work
[4] = system: Antivalproate; assay: Homogeneous enzyme immunoassay for valproate (absorbance difference); type: biochemical; conditions: difference in absorbance×2.667, 340 mn, 10 to 40 seconds
From the text: As previously indicated, the antibodies and enzyme reagents prepared in accordance with the subject invention find particular use in immunoassays for the determination of valproate. A description of the method for carrying out the immunoassay, which is a homogeneous enzyme immunoassay, may be found in U.S. Pat. No. 3,817,837. The method involves combining the enzyme conjugate, the unknown sample suspected of containing valproate, an antibody for valproate in an aqueous buffered medium at temperatures in the range of about 10° to 50°, more usually from about 20° to 40° C., and determining the enzyme activity as compared to the enzyme activity of an assay medium having a known amount of valproate.
In carrying out the assay, a Gilford 300 N microsample spectrophotometer is employed with a Thermocuvette with a flow cell. All readings are made at 340 mn. The following solutions are prepared as reagents for use in the assay.
Sufficient enzyme conjugate to give
a maximum rate of ΔOD equal to
Antivalproate optimized for assay
The protocol employed for carrying out an assay is as follows: A sample, 50 μl is drawn up into a diluter and dispensed with 250 μl of the assay buffer into a one ml Croan cup. A 50 μl aliquot of the diluted sample is drawn up and dispensed with a 250 μl portion of assay buffer into a second Croan cup. Into the second Croan cup is introduced 50 μl of the antibody reagent with 250 μl of the assay buffer, followed by the addition of 50 μl of the enzyme reagent and 250 μl of the assay buffer. Immediately after the enzyme addition, the entire sample is aspirated into the flow cell. After 10 seconds, a first reading is taken, followed by a second reading, after a 40 second interval from aspiration. The results are reported as the difference in absorbance×2.667.

With CCCC(CCC)C(=O)O [valproic acid, 2-propylpentanoic acid] as the compound, how does the metabolism [1] read?
The metabolism was “metabolized in humans via oxidation predominantly at the positions β and ω to the carboxylic acid”.

What about the excretion ([1]; urine) of the same compound?
The excretion was “eventually excreted in urine as the free acids or via glucuronide formation”.

Which “minimum level in serum required for therapeutic efficacy” value [2] does the source give for CCCC(CCC)C(=O)[O-].[Na+] [Valproate, sodium di-n-propylacetate] here?
The value was no less than 50 µg/mL.

What about the toxicity [3] of the same compound?
Its toxicity is “low toxicity”.

And the ΔOD ([4]; valproate 25 μg/ml)?
The ΔOD was 630.

And the ΔOD ([4]; valproate 50 μg/ml)?
The ΔOD was 646.

And the ΔOD ([4]; valproate 75 μg/ml)?
Its ΔOD is 666.

And the ΔOD ([4]; valproate 100 μg/ml)?
Its ΔOD is 682.

And the ΔOD ([4]; valproate 150 μg/ml)?
Its ΔOD is 714.
